{"source": "patent US20250255875A1", "about": "“BIFUNCTIONAL CHIMERIC MOLECULES FOR LABELING OF KINASES WITH TARGET BINDING MOIETIES AND METHODS OF USE THEREOF” (The Brigham and Women's Hospital, Inc., priority 2022, published 2025)", "origin": "cited, not measured here", "key": {"[1]": {"target": "p38α MAPK (Homo sapiens, UniProt Q16539)", "sequence (Q16539 whole entry)": "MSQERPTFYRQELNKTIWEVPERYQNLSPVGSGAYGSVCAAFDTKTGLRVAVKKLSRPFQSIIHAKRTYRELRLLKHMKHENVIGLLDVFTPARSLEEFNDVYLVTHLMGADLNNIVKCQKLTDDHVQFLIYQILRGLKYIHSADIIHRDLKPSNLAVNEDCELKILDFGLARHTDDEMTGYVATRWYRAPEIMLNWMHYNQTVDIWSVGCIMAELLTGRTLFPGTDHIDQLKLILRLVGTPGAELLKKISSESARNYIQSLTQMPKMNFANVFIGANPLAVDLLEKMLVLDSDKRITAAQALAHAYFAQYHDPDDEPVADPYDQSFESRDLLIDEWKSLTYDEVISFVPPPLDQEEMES"}, "[2]": {"system": "NF-…B Pathway"}, "[3]": {"system": "MERS-COV", "conditions": "in vitro"}, "[4]": {"target": "c-Met (Homo sapiens, UniProt P08581)", "sequence (P08581 25-1390)": "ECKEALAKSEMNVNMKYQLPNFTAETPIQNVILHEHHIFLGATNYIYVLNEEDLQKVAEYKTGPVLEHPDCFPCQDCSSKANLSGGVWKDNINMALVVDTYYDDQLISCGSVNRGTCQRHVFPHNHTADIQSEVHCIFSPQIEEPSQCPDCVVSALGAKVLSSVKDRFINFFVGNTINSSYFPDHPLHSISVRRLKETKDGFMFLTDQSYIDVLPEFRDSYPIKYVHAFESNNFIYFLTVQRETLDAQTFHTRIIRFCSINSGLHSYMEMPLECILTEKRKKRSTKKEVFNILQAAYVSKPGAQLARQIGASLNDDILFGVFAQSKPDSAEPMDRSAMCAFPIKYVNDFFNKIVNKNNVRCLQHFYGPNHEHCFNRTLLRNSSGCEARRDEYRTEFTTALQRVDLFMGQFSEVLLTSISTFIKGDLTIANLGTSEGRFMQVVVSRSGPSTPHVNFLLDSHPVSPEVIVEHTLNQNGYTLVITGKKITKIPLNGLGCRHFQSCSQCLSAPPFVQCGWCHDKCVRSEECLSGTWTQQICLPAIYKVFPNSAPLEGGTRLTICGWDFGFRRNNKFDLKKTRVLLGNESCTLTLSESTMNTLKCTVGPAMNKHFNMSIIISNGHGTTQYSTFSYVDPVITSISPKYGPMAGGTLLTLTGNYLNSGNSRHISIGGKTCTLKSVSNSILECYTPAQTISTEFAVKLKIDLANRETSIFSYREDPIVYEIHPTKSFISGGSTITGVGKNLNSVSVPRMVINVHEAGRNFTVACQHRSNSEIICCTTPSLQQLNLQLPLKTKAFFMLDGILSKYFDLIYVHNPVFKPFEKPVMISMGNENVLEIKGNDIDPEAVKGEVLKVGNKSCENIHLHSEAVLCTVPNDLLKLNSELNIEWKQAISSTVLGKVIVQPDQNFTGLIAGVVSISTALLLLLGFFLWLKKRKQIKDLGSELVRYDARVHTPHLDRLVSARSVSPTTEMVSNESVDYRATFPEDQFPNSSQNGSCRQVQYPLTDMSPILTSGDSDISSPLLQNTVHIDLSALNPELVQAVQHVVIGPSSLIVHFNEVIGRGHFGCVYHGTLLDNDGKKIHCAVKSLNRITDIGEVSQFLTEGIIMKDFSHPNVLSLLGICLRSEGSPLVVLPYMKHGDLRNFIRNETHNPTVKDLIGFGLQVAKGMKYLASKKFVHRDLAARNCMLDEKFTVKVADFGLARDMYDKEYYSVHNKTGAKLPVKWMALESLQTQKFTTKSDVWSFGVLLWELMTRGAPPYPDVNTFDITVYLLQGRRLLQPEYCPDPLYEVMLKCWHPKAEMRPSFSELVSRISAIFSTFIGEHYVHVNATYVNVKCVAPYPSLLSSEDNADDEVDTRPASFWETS"}, "[5]": {"system": "breast, prostate, colon and pancreatic carcinoma xenografts", "conditions": "in vivo"}, "[6]": {"system": "mutant EGFR", "conditions": "0.01-10 uM"}, "[7]": {"target": "T1, Recombinant PK… (PKCζ) (Homo sapiens, UniProt Q05513)", "T1 sequence (Q05513 1-592)": "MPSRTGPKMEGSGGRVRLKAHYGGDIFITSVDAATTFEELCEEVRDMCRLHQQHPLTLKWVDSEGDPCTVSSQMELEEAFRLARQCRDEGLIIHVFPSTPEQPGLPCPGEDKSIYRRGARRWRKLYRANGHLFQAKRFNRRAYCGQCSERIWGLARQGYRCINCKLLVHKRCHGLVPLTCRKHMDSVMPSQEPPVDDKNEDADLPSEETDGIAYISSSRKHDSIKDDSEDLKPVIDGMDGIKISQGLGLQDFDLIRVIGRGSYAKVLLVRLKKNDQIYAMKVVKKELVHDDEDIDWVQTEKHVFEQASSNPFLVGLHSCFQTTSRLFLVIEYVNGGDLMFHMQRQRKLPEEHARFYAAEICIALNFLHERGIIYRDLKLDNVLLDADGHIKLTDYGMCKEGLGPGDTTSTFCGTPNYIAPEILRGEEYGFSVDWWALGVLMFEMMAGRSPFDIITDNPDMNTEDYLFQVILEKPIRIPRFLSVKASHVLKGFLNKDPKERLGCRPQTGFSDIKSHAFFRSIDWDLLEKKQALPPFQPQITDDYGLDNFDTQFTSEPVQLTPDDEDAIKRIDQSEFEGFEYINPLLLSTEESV"}, "[8]": {"assay": "not given", "remark": "listed apart in the source"}, "[9]": {"system": "NF-kB", "conditions": "mice"}, "[10]": {"system": "Lyn kinase", "conditions": "knockout mice"}}, "data": [{"compound": "O=C1c2ccc(Nc3ccc(F)cc3F)cc2CCc2ccc(OC[C@H](O)CO)cc21", "note": "[Skepinone-B]", "values": [{"measurement": "residence time", "setting": "[1]", "result": 150, "unit": "s"}]}, {"compound": "CC(C)(C)C1=NN(c2ccc(Cl)cc2)C(c2ccc(O)cc2)C1", "note": "(stereo not drawn) [1a]", "values": [{"measurement": "reporter gene assay % inhibu at 5 μM", "setting": "[2]", "result": 75.1, "unit": "%"}]}, {"compound": "CO[C@H]1C[C@@H]2CC[C@@H](C)[C@@](O)(O2)C(=O)C(=O)N2CCCC[C@H]2C(=O)O[C@H]([C@H](C)C[C@@H]2CC[C@@H](O)[C@H](OC)C2)CC(=O)[C@H](C)/C=C(\\C)[C@@H](O)[C@@H](OC)C(=O)[C@H](C)C[C@H](C)/C=C/C=C/C=C/1C", "note": "[Sirolimus]", "values": [{"measurement": "MERS-COV infection of Huh7 cells", "setting": "[3]", "result": "inhibits MERS-COV infection"}]}, {"compound": "O=C1NC(=O)[C@@H](c2cn3c4c(cccc24)CCC3)[C@@H]1c1c[nH]c2ccccc12", "note": "[Tivantinib, tivantinib]", "values": [{"measurement": "selectivity for c-Met over other kinases tested", "setting": "[4]", "result": "10-100 time"}, {"measurement": "growth of carcinoma xenografts", "setting": "[5]", "result": "inhibition of growth"}]}, {"compound": "O=C(NOCC(O)CO)c1ccc(F)c(F)c1Nc1ccc(I)cc1F", "note": "(stereo not drawn) [Compound 35]", "values": [{"measurement": "Sol (pH 6.5)", "result": "255, μg/mL"}]}, {"compound": "O=C(Nc1nccs1)C(c1cc(F)ccc1O)N1Cc2ccc(-c3ccc(N4CCNCC4)cc3)cc2C1=O", "note": "(stereo not drawn) [JBJ-04-125-02]", "values": [{"measurement": "EGFR phosphorylation", "setting": "[6]", "result": "inhibited EGFR phosphorylation"}]}, {"compound": "Cc1ccc(N2N=C(C(C)(C)C)CC2c2ccc(O)cc2)cc1", "note": "(stereo not drawn) [1e]", "values": [{"measurement": "reporter gene assay % inhibu at 5 μM", "setting": "[2]", "result": 62.9, "unit": "%"}]}, {"compound": "CC(C)(C)C1=NN(c2cccc(C(F)(F)F)c2)C(c2ccc(O)cc2)C1", "note": "(stereo not drawn) [1j]", "values": [{"measurement": "cell-free assay % inhibu at 62.5 μM", "setting": "[7]", "result": 96.1, "unit": "%"}, {"measurement": "reporter gene assay % inhibu at 5 μM", "setting": "[2]", "result": 89.7, "unit": "%"}]}, {"compound": "CC(=O)Nc1cccc(-n2c(=O)n(C3CC3)c(=O)c3c(Nc4ccc(I)cc4F)n(C)c(=O)c(C)c32)c1", "note": "[Trametinib]", "values": [{"measurement": "Absorption/distribution of an oral dose of tablet", "setting": "[8]", "result": 72, "unit": "%"}]}, {"compound": "CC(C)(C)C1=NN(c2cccc(Cl)c2)C(c2ccc(O)cc2)C1", "note": "(stereo not drawn) [1h]", "values": [{"measurement": "cell-free assay % inhibu at 62.5 μM", "setting": "[7]", "result": 96.8, "unit": "%"}, {"measurement": "reporter gene assay % inhibu at 5 μM", "setting": "[2]", "result": 64.6, "unit": "%"}]}, {"compound": "Cc1ccc2nc(NCCN)c3ncc(C)n3c2c1.Cl", "note": "[BMS-345541]", "values": [{"measurement": "activity against LPS-induced NF-kB activation", "setting": "[9]", "result": "active"}]}, {"compound": "CC(C)(C)C1=NN(c2ccc(Br)cc2)C(c2ccc(O)cc2)C1", "note": "(stereo not drawn) [1c]", "values": [{"measurement": "cell-free assay % inhibu at 62.5 μM", "setting": "[7]", "result": 93.2, "unit": "%"}, {"measurement": "reporter gene assay % inhibu at 5 μM", "setting": "[2]", "result": 58.4, "unit": "%"}]}, {"compound": "Cc1cccc(Oc2cnc(=O)[nH]c2)c1", "note": "[Tolimidone, tolimidone]", "values": [{"measurement": "glucose lowering when Lyn kinase was absent", "setting": "[10]", "result": "did not lower glucose"}]}, {"compound": "Cc1cccc(N2N=C(C(C)(C)C)CC2c2ccc(O)cc2)c1", "note": "(stereo not drawn) [1k]", "values": [{"measurement": "cell-free assay % inhibu at 62.5 μM", "setting": "[7]", "result": 91.7, "unit": "%"}, {"measurement": "reporter gene assay % inhibu at 5 μM", "setting": "[2]", "result": 73.7, "unit": "%"}]}, {"compound": "CC(C)(C)C1=NN(c2ccc(F)cc2)C(c2ccc(O)cc2)C1", "note": "(stereo not drawn) [1b]", "values": [{"measurement": "cell-free assay % inhibu at 62.5 μM", "setting": "[7]", "result": 95.5, "unit": "%"}, {"measurement": "reporter gene assay % inhibu at 5 μM", "setting": "[2]", "result": 63.8, "unit": "%"}]}]}
